# Results: ChEMBL document CHEMBL1926510, “Naphthoquinone-like polyketide isolated from Streptomyces sp. RI-77 and its predicted biosynthetic pathway” (J Nat Prod, 2011)
# Activity calls are given as the source filed them. The calls are words filed in the database; no cut-off is given here.
# Assays:
# [1] = Antioxidant activity assessed as DPPH radicle scavenging activity after 30 mins by spectrometric analysis; type: functional
# [2] = test system: Escherichia coli; test: Antibacterial activity Escherichia coli; type: functional, organism-based
# [3] = test system: Micrococcus luteus; test: Antibacterial activity Micrococcus luteus; type: functional, organism-based
IC50 [1],Structure (SMILES),Activity [2],Activity [3]
28 µM,Cc1c(C)c2c(c(C)c1O)CC[C@@](C)(CCC[C@H](C)CCC[C@H](C)CCCC(C)C)O2 [ALPHA-TOCOPHEROL],–,–
165 µM,COc1cc(O)c2c(c1O)C(=O)[C@@]13C[C@H]4[C@@H](C[C@H]1C(C)=O)OC(=O)[C@@]4(OC)C(O)=C3C2=O,inactive,inactive
